Data on 2 molecules can be found in paper PMC12090182, “Repurposing of the RIPK1-Selective Benzo[1,4]oxazepin-4-one Scaffold for the Development of a Type III LIMK1/2 Inhibitor” (ACS Chemical Biology, 2025).

Holding throughout (assay type): cell-based
One data set concerns the target LIMK1 (Homo sapiens, UniProt P53667). As to the kind of experiment: NanoBRET cellular target engagement. Details: purchased Carna Biosciences. Conditions: LIMK1, HEK293T cells. As to the method: (§1) The assay was performed as described previously.[31],[32] In brief, full-length LIMK1/2, RIPK1, BTK, and LRRK2 cloned in a frame in a NanoLuc-vector (Promega) were transfected into HEK293T cells (ATCC CRL-1573) using FuGENE HD (Promega, E2312), and proteins were allowed to express for 20 h. The serially diluted inhibitor and NanoBRET Kinase Tracer (Promega) used at the previously determined Tracer KD,app (Table S1) were pipetted into white 384-well plates (Greiner 781 207) using an ECHO 550 acoustic dispenser (Labcyte). The corresponding transfected cells were added and reseeded at a density of 2 × 10^5 cells/mL after trypsinization and resuspension in Opti-MEM without phenol red (Life Technologies). The system was allowed to equilibrate for 2 h at 37 °C and 5% CO2 prior to BRET measurements. To measure BRET, a NanoBRET Nano-Glo substrate and an extracellular NanoLuc inhibitor (Promega, N2160) were added as per the manufacturer's protocol, and filtered luminescence was measured on a PHERAstar plate reader (BMG Labtech) equipped with a luminescence filter pair (a 450 nm BP filter (donor) and a 610 nm LP filter (acceptor)). Competitive displacement data were then plotted using GraphPad Prism 10 software using a normalized three-parameter curve fit with the following equation: Y = 100/( [drawing 1] ).
On the technique in general: Bioluminescence resonance energy transfer reports proximity on the nanometre scale.

The target of another data set is LIMK2 (Homo sapiens, UniProt P53671). As to the kind of experiment: NanoBRET cellular target engagement. Details: full-length LIMK1/2, RIPK1, BTK, and LRRK2 cloned in a frame in a NanoLuc-vector (Promega); host or cells: HEK293T. Conditions: LIMK2, HEK293T cells. As for the experimental part: as §1
The subject of the next data set is MRC-9 cells. Nature of the data set: Multiplex high-content viability assessment. Conditions: human fibroblast, 10 µM. As for the experimental part: (§2) To assess the influence on cell health, a high-content screening in living cells called the multiplex high-content assay, as described previously by Tjaden et al., was performed.[38] In brief, HEK293T (ATCC CRL-1573) and U2OS (ATCCHTB-96) were cultured in DMEM plus L-glutamine (high glucose) supplemented by 10% FBS (Gibco) and penicillin/streptomycin (Gibco). MRC-9 fibroblasts ([…]) were cultured in EMEM plus L-glutamine supplemented by 10% FBS (Gibco) and penicillin/streptomycin (Gibco). Cells were seeded at a density of 1250 cells per well in a 384-well plate in a culture medium (cell culture microplate, PS, f-bottom, μClear, 781091, Greiner), with a volume of 50 μL per well. All outer wells were filled with 100 μL of PBS buffer (Gibco). […] The cell shape and fluorescence were measured before treatment and 12, 24, and 48 h after compound treatment using the CQ1 high-content confocal microscope (Yokogawa, Musashino, Japan). […] The compounds were tested at 1 and 10 μM, respectively. Acquired images of the cells were processed using Yokogawa CellPathfinder software (v3.04.02.02). […] Results were normalized to cells exposed to 0.1% DMSO. All compounds were tested in biological duplicates, and SEM (standard error of mean) was calculated of biological duplicates.

For another data set, the system named is HEK293T cells. Conditions: HEK293T, 10 µM. As to the method:
as §2

The subject of the next data set is U2OS cells. The conditions noted are these: U2OS; 10 µM; 0 h after treatment. As to the method: as §2

As a reminder, the EC50 is the concentration giving half of the maximal effect. Higher therefore signals lower potency in that assay.

Values joined by “and” are separate entries in the source; they are usually repeats but may differ in a detail not shown here. Equal entries are not always repeated.

Sequence of LIMK1 (P53667 whole entry): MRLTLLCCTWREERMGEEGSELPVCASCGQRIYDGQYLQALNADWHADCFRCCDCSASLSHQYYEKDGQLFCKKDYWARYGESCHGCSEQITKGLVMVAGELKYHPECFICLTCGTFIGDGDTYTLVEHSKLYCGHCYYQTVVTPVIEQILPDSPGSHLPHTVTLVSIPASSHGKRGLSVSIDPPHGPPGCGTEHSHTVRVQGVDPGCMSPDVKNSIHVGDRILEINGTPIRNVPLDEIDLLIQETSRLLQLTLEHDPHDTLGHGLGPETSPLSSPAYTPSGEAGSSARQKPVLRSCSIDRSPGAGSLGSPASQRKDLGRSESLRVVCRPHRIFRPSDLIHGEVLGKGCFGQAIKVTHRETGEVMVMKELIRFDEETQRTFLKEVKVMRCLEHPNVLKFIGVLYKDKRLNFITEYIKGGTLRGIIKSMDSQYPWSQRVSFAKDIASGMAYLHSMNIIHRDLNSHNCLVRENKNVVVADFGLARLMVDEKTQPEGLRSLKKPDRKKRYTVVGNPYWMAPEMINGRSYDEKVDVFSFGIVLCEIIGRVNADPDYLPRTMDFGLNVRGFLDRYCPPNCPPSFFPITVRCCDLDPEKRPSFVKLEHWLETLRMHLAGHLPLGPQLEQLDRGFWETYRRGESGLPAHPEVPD
Sequence of LIMK2 (P53671 whole entry): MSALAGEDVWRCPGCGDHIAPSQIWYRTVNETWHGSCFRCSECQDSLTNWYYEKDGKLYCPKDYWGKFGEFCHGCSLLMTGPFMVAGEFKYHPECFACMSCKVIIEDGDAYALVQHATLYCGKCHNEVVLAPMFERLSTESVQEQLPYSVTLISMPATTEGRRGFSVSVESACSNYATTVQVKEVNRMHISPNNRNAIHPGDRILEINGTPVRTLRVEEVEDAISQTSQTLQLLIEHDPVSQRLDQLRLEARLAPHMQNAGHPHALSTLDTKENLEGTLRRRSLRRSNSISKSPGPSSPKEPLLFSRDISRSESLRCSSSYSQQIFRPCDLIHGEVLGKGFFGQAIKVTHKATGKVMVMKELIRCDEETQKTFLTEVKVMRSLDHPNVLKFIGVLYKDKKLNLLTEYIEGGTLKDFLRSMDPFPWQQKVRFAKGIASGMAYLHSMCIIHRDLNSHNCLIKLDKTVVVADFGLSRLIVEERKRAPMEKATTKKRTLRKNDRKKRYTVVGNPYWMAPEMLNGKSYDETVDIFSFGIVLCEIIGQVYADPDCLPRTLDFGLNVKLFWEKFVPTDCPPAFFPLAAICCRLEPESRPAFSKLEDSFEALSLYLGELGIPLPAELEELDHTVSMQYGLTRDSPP

As for `CN1C(=O)[C@@H](N2CCc3cn(Cc4ccccc4)nc3C2=O)COc2ccccc21` [TP-030-1], the values for the EC50 at LIMK1 and on LIMK2 were 42 µM and 38 µM, respectively.
`CN[C@@H]1C[C@H]2O[C@@](C)([C@@H]1OC)n1c3ccccc3c3c4c(c5c6ccccc6n2c5c31)C(=O)NC4` [staurosporine]: the “Population Healthy Nuclei (%)” value was 63.64% and 62.50% and 53.61% and 54.10% in the data set with MRC-9 cells (0 h after treatment); 32.43% and 29.76% and 33.41% and 38.90% with MRC-9 cells (12 h after treatment); 37.01% and 35.97% and 41.62% and 36.60% in the data set on MRC-9 cells (24 h after treatment); 39.48% and 36.86% and 44.48% and 39.35% with MRC-9 cells (48 h after treatment); 64.72% and 69.22% and 71.09% in the data set with HEK293T cells (12 h after treatment). The “Population Fragmented Nuclei (%)” value in the data set with MRC-9 cells (12 h after treatment) is 57.03% and 59.76% and 57.04% and 49.59%; with MRC-9 cells (24 h after treatment), 56.12% and 54.77% and 50.00% and 53.32%; in the data set with MRC-9 cells (48 h after treatment) it was 53.07% and 56.00% and 48.62% and 54.18%. For the same molecule, the “Population apoptotic cell (%)” value with MRC-9 cells (12 h after treatment) is 48.72% and 46.51% and 42.50% and 50.00%; in the data set with HEK293T cells (48 h after treatment), 60.00% and 75.00% and 76.47%. Further, in the data set with HEK293T cells (0 h after treatment), the “Population with membrane disruption (%)” value came out at 0.00%. The “Population cell that influence microtubule strucutre (%)” value with HEK293T cells (12 h after treatment) is 37.22% and 35.67%. For the same molecule, in the data set on U2OS cells, the “Population with increased mitochondrial mass (%)” value was 2.11% and 3.70% and 5.56%.
